According to paper PMC10539439 (Pharmacological Reports, 2023):
Values joined by “and” are separate entries in the source; they are usually repeats but may differ in a detail not shown here. Identical values can stand only once.

Columns and labels:
α2-adrenoceptor = target: T1, α2-adrenoceptor (Rattus norvegicus, UniProt P22909); assay: Competitive radioligand-binding assay, [3H]clonidine; settings: for CPM: ADRA2, experiments 1-3, duplicates; for Affinity towards α2-adrenoceptors: summary table
T1 sequence (P22909 1-465): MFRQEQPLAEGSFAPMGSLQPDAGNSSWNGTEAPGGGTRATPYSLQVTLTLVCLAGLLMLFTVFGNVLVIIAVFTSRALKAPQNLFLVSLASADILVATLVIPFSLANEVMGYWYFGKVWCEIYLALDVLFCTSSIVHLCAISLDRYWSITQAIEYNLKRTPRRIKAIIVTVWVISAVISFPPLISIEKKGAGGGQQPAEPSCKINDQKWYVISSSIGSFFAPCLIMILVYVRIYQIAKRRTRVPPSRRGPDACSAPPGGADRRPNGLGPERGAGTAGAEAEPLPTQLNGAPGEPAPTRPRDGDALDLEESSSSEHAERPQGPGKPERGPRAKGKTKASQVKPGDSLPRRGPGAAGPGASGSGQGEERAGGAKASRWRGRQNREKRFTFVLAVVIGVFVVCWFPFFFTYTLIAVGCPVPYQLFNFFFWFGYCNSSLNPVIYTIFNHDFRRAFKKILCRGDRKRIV
Protocol: 10 mM stock solutions of test compounds were prepared in DMSO. Serial dilutions of compounds were prepared in 96-well microplate in assay buffers using an automated pipetting system epMotion 5070 (Eppendorf, Poland). Each compound was tested in 6 concentrations of 1.0E-05 to 1.0E-10 M (final concentration).
Affinity towards α1- and α2-adrenoceptors was evaluated using the competitive radioligand-binding assay. Experiments were conducted in the rat cerebral cortex. Radioligand [3H]prazosin (84,2 Ci/mmol, α1-adrenoceptor, PerkinElmer, Poland, NET823001MC) and [3H]clonidine (70.5 Ci/mmol, α2-adrenoceptor, PerkinElmer, Poland, NET613250UC) were used. The membrane preparation and the assay procedure were carried out accordingly as previously published. Radioactivity was counted on the MicroBeta2 scintillation counter (PerkinElmer, Poland). Data were fitted to a one-site curve-fitting equation with Prism 8 (GraphPad Software, USA), and Ki values were estimated from the Cheng–Prusoff equation.

[1] = Distribution in brain after ip administration; format: in vivo, rat; settings: for Tmax / concentration at 5 min / concentration at 15 min / concentration at 30 min / concentration at 60 min / concentration at 120 min / concentration at 240 min: male, Wistar, rat, brain; for concentration at 5 min / concentration at 15 min / concentration at 30 min / concentration at 60 min / concentration at 120 min / concentration at 240 min: intraperitoneal, mean; for concentration at 5 min: 5 min after administration; for concentration at 15 min: 15 min after administration; for concentration at 30 min: 30 min after administration; for concentration at 60 min: 60 min after administration; for concentration at 120 min: 120 min after administration; for concentration at 240 min: 240 min after administration; for Penetration into the brain: summary table
Protocol: For the pharmacokinetic study, a group of 56 adult male rats (Wistar, 220–250 g, […]) were used in the experiment. Animals were purchased from the Animal House of the Faculty of Pharmacy of Jagiellonian University Medical College, Krakow, Poland. […] These were then given through an intraperitoneally injections (ip) at a dose of 0.3 mg/kg and 0.4 mg/kg, respectively. Blood samples were collected at 0 min (predose), 5 min, 15 min, 30 min, 60 min, 120 min, and 240 min after compound administration. Blood and brain samples were collected under general anesthesia induced by ip injections of 50 mg/kg ketamine plus 8 mg/kg xylazine. Blood samples were taken in heparinized tubes and immediately centrifuged at 3500 rpm for 10 min, and plasma was collected. Brain and plasma samples were immediately frozen at – 80 ℃ for LC/MS/MS analysis. All experimental procedures were carried out according to EU Directive 2010/63/EU and approved by the I Local Ethics Committee for Animal Experiments of the Jagiellonian University in Krakow, Poland (No. 94/2016).
The pharmacokinetic parameters were calculated using a non-compartmental approach from the average concentration values, using Phoenix WinNonlin software (Certara, Princeton, NJ 08540 USA). The first-order elimination rate constant (λz) was calculated by linear regression of time versus log concentration. Next, the area under the mean plasma and the concentration in the brain versus the time curve (AUC0→t) were estimated using the log-linear trapezoidal rule (Eq. 1), where Cn is the concentration of the last sampling of each compound1 AUC0→t=∑i=1n(Ci+Ci+1)/2·ti+1-ti+Cn/λz.
The quantification of compounds in plasma and brain samples was performed using the Sciex API 3200 triple quadrupole mass spectrometer (Concord, Ontario, Canada) equipped with an electrospray (ESI) ionization interface. This instrument was coupled to an Elite LaChrom (Hitachi, USA) HPLC system. Data acquisition and processing were performed using Sciex Analyst 1.5.2 data collection and integration software. After preparation, the samples were injected (20 µL) onto XBridge C18 (2.1 mm × 30 mm, 3.5 μm, Waters, Milford, Massachusetts, USA) analytical column. The mobile phase consisted of 0.1% formic acid in acetonitrile (A) and 0.1% formic acid in water (B) was delivered in a gradient elution starting with 90% of eluent B, increasing for 2 min to 90% of eluent A, maintained for 3 min, and then returned for 5 min to 90% of eluent B, and maintained 90% of eluent B during 5 min at a flow rate of 300 µL/min. The total analysis time was 10 min. […] The ion spray source settings were as follows: spray voltage: 5.5 kV, heater temperature: 400 °C, curtain gas: 10 psi, source gas 1: 20 psi, and source gas 2: 20 psi.
Further dilutions were performed using the same solvent to prepare working standard solutions of the analyte at the following concentrations: 0.025, 0.05, 0.1, 0.25, 0.5, 1.0, 2.5, 5.0, 10, 25, and 50 µg/mL for calibration curve samples (CC) and 0.025, 0.075, 2.2, and 4.5 µg/mL for quality control samples (QC). To prepare samples for calibration curve or quality control samples, 45 µL of the matrix (plasma or brain homogenate) was added with 5 µL of internal standard solution (1 µg/mL) obtaining the final concentration of 100 ng/mL and 5 µL of standard working solutions at the needed CC or QC concentration levels. After the addition of the standard solution, the samples were mixed and purified.
A sample volume of 50 µL of plasma or brain homogenate was transferred to the clean Eppendorf tube and spiked with 5 µL of IS solution (1 µg/mL) obtaining the final concentration of 100 ng/mL. After 5 min of mixing (1500 rpm) proteins were precipitated using 200 µL ACN. After 10 min of sample shaking (1500 rpm), the incubation step was performed (10 min, 4 °C). The samples were then centrifuged (10,000 rpm, 10 min, 4 °C) and the supernatant was transferred to chromatographic vials for LC/MS/MS analysis.

[2] = 5 mg/kg b.w., i.p.; cited from earlier work
[3] = rat brain, ip, Guanabenz 0.3 mg/kg, 4-OH-Guanabenz 0.4 mg/kg

Cl.N=C(N)NN=Cc1c(Cl)cc(O)cc1Cl [4-OH-Guanabenz, 2-[(2,6-Dichloro-4-hydroxyphenyl)methylene]hydrazinecarboximidamide Hydrochloride]
affinity toward α2-adrenoreceptor (in words) (α2-adrenoceptor): high affinity | CPM (α2-adrenoceptor; log of molar concentration -5): 78 CPM and 116 CPM and 96 CPM and 117 CPM and 113 CPM and 111 CPM | CPM (α2-adrenoceptor; log of molar concentration -6): 132 CPM and 157 CPM and 112 CPM and 131 CPM and 141 CPM | CPM (α2-adrenoceptor; log of molar concentration -7): 198 CPM and 156 CPM and 131 CPM and 190 CPM and 205 CPM | CPM (α2-adrenoceptor; log of molar concentration -8): 314 CPM and 316 CPM and 394 CPM and 302 CPM and 300 CPM | CPM (α2-adrenoceptor; log of molar concentration -9): 420 CPM and 340 CPM and 383 CPM and 296 CPM and 320 CPM and 437 CPM | CPM (α2-adrenoceptor; log of molar concentration -10): 404 CPM and 380 CPM and 358 CPM and 403 CPM and 400 CPM and 370 CPM | Affinity towards α2-adrenoceptors (α2-adrenoceptor): + | Tmax ([1]; ip): 0.25 h | concentration at 5 min [1]: 13.3 ng/g | concentration at 15 min [1]: 64.5 ng/g | concentration at 30 min [1]: 23.9 ng/g | concentration at 60 min [1]: 4.54 ng/g | concentration at 120 min [1]: 3.94 ng/g | concentration at 240 min [1]: 3.2 ng/g | AUC0→t [1, 3]: 2573 ng ⋅ min/g | t0.5 [1, 3]: 112.7 min | Penetration into the brain [1]: Poor

N=C(N)N/N=C/c1c(Cl)cccc1Cl [Guanabenz]
CPM (α2-adrenoceptor; log of molar concentration -6): 89 CPM and 117 CPM and 99 CPM and 116 CPM and 125 CPM and 115 CPM | CPM (α2-adrenoceptor; log of molar concentration -7): 120 CPM and 135 CPM and 148 CPM and 196 CPM and 133 CPM | CPM (α2-adrenoceptor; log of molar concentration -8): 152 CPM and 165 CPM and 205 CPM and 265 CPM and 170 CPM | CPM (α2-adrenoceptor; log of molar concentration -10): 320 CPM and 325 CPM and 437 CPM and 458 CPM and 265 CPM and 270 CPM | Affinity towards α2-adrenoceptors (α2-adrenoceptor): + | Tmax ([1]; ip): 1 h | Tmax ([1]; ip, 0.3 mg/kg): ≤ 1 h | concentration at 5 min [1]: 45.6 ng/g | concentration at 15 min [1]: 110 ng/g | concentration at 30 min [1]: 164 ng/g | concentration at 60 min [1]: 183 ng/g | concentration at 120 min [1]: 92.5 ng/g | concentration at 240 min [1]: 58.6 ng/g | t0.5 [1, 3]: 116.1 min | Penetration into the brain [1]: Good | Body weight of obese animals [2]: ↓ [17]
